Assay results taken from ChEMBL document CHEMBL1156900, “Synthesis and anti-influenza virus activity of dihydrofuran-fused perhydrophenanthrenes with a benzyloxy-type side-chain” (2010).
Activity calls are given as the source filed them. No cut-off for these calls is given here.

These molecules were tested on H3N2 subtype (assay: Antiviral activity against influenza A virus A/Aichi/2/68 (H3N2) infected in MDCK cells at 10 uM by plaque titration assay relative to control). Conditions: not given.
Assay type: functional, A/Aichi/2/1968(H3N2)

SMILES	Activity [%]
N#C[C@]12CCC3(OCCO3)C3=CO[C@H](Cc4cc(-c5c(F)cc(F)cc5F)ccc41)[C@@H]32	70
N#C[C@]12CCC3(OCCO3)C3=CO[C@H](Cc4cc(OCc5cc(F)cc(F)c5)ccc41)[C@@H]32	30
N#C[C@]12CCC3(OCCO3)C3=CO[C@H](Cc4cc(-c5ccccc5)ccc41)[C@@H]32	70
N#C[C@]12CCC3(OCCO3)C3=CO[C@H](Cc4cc(OCc5ccccc5)ccc41)[C@@H]32	30

Same assay, conditions: A/Aichi/2/1968(H3N2)

SMILES	Activity
N#C[C@]12CCC3(OCCO3)C3=CO[C@H](Cc4cc(OCc5ccc(COc6ccc7c(c6)C[C@H]6OC=C8[C@H]6[C@@]7(C#N)CCC86OCCO6)cc5)ccc41)[C@@H]32	Active
N#C[C@]12CCC3(OCCO3)C3=CO[C@H](Cc4cc(OS(=O)(=O)C(F)(F)F)ccc41)[C@@H]32	inactive
N#C[C@]12CCC3(OCCO3)C3=CO[C@H](Cc4cc(OCc5ccccn5)ccc41)[C@@H]32	Active
N#C[C@]12CCC3(OCCO3)C3=CO[C@H](Cc4cc(OCc5ccncc5)ccc41)[C@@H]32	Active
N#C[C@]12CCC3(OCCO3)C3=CO[C@H](Cc4cc(OC(F)(F)F)ccc41)[C@@H]32	Active
N#C[C@]12CCC3(OCCO3)C3=CO[C@H](Cc4cc(OCc5cccnc5)ccc41)[C@@H]32	Active
